What all share (details): exposure time 48 h
Test [1] deals with Caenorhabditis elegans N2. Kind of test: AC50 for larval growth inhibition (Hill fit); higher = less potent. The essentials:
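After 48 h at 20°C in K-medium with killed OP50, 1% DMSO and 0.5–200 µM chemical, synchronised C. elegans N2 L1 larvae (50 per well, 96-well plates) were sized individually as extinction on a COPAS Biosort. These values were log-transformed and averaged per well, and wells with fewer than 10 worms were excluded. The AC50 was derived from a constrained Hill fit by weighted genetic-algorithm regression, and out-of-range values are censored.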

For test [2], the system named is Caenorhabditis elegans N2. Kind of test: lowest effective concentration for larval growth inhibition (size below effect threshold); higher = less potent. The essentials: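 Worm size was taken as per-worm extinction on the Biosort, log-transformed and turned into well means. The larvae (C. elegans N2, L1 stage, 50 per 96-well) had spent 48 h at 20°C in K-medium with killed bacteria, 1% DMSO and 0.5, 1, 5, 10, 50, 100 or 200 µM chemical. The lowest effective concentration marks the first dose where the plate-adjusted mean size drops under a cutoff and remains under it at every higher dose; the cutoff is 5.665.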

Test [3] has as its system Caenorhabditis elegans N2. The experiment in a line: mean nematode size ln(EXT) after 48 h, plate-adjusted (DMSO control set to 6) (ln(EXT), control-adjusted); higher = larger nematodes / less growth inhibition. The essentials:
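Synchronised C. elegans N2 L1 larvae (50 per well, 4–6 wells per treatment) were grown for 48 h at 20°C in K-medium with killed OP50, 1% DMSO and 0.5–200 µM chemical. The Biosort measured each worm's extinction, and debris was removed by a growth model. Values were natural-logged and averaged per well. Mean size was then plate-adjusted by subtracting the vehicle control mean and adding 6.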

`ClC(Cl)=C(c1ccc(Cl)cc1)c1ccc(Cl)cc1` [p,p'-DDE]: the “AC50 for larval growth inhibition” value in test [1] was found to be 2.64 µM. In addition, in test [2], the lowest effective concentration was 5 µM. Also, the “mean nematode size ln(EXT) (ln)” value in test [3] (0.5 µM) was 5.79; in test [3] (1 µM), 5.71; in test [3] (5 µM) it was 4.36; in test [3] (10 µM), 4.21; in test [3] (50 µM) it was 3.94; in test [3] (100 µM), 3.93. Moreover, the “mean nematode size ln(EXT) (ln)” value in test [3] (200 µM) stood at 3.67.
For `Clc1ccc(C(c2ccc(Cl)cc2)C(Cl)(Cl)Cl)cc1` [p,p'-DDT], the “AC50 for larval growth inhibition” value in test [1] worked out at 3.83 µM. The compound further returned a lowest effective concentration in test [2] of 5 µM. The “mean nematode size ln(EXT) (ln)” value in test [3] (0.5 µM) amounted to 6; in test [3] (1 µM), 5.91; in test [3] (5 µM), 4.31; in test [3] (10 µM), 3.75; in test [3] (50 µM) it was 3.44; in test [3] (100 µM), 3.36. The “mean nematode size ln(EXT) (ln)” value in test [3] (200 µM) worked out at 3.29.
On to `Brc1ccc(Oc2ccccc2)cc1` [p-Bromodiphenyl-ether], for which the “AC50 for larval growth inhibition” value in test [1] is 52.5 µM. The lowest effective concentration in test [2] was 5 µM. The “mean nematode size ln(EXT) (ln)” value in test [3] (0.5 µM) was determined as 5.7; in test [3] (1 µM), 5.75; in test [3] (5 µM), 5.55; in test [3] (10 µM) it was 5.54; in test [3] (50 µM), 4.74; in test [3] (100 µM), 4.03. Moreover, the “mean nematode size ln(EXT) (ln)” value in test [3] (200 µM) stood at 3.65.
`Nc1ccc(Cl)cc1` [p-Chloroaniline]: the “AC50 for larval growth inhibition” value in test [1] amounted to 58.2 µM. Also, in test [2], the lowest effective concentration worked out at 50 µM. Besides, the “mean nematode size ln(EXT) (ln)” value in test [3] (0.5 µM) was found to be 5.79; in test [3] (1 µM) it was 5.76; in test [3] (5 µM), 5.74; in test [3] (10 µM), 5.76; in test [3] (50 µM), 5.28; in test [3] (100 µM) it was 4.43. Further, in test [3] (200 µM), the “mean nematode size ln(EXT) (ln)” value was found to be 4.21.
Turning to `CC(C)(C)c1cc(O)ccc1O` [tert-Butylhydroquinone], in test [1], the “AC50 for larval growth inhibition” value is over 200 µM. The lowest effective concentration in test [2] amounted to 50 µM. The “mean nematode size ln(EXT) (ln)” value in test [3] (0.5 µM) was determined as 5.85; in test [3] (1 µM), 5.85; in test [3] (5 µM), 5.96; in test [3] (10 µM) it was 5.81; in test [3] (50 µM), 5.62; in test [3] (100 µM), 5.41. In test [3] (200 µM), the “mean nematode size ln(EXT) (ln)” value turned out to be 5.03.
